Patent US9833497B2, “Human originated EGF domain proteins and use of the same” (CHENGDU SOURCEBIO LIMITED-LIABILITY COMPANY, priority 2013, dated 2017)

Columns and labels:
Format in all cases: cell-based
Enterobacter cloacae = test: MIC against Gram-negative bacteria: Enterobacter cloacae
In short: (§1)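 Broth microdilution, LB medium, final inoculum 5×10^5 CFU/mL from McFarland 0.5 cultures. Recombinant human EGF domain proteins tested in two-fold steps, n=3. MIC: lowest concentration, no growth.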

Citrobacter diversus = test: MIC against Gram-negative bacteria: Citrobacter diversus
In short: as §1

Serratia marcescens = test: MIC against Gram-negative bacteria: Serratia marcescens
In short: as §1

Moraxella catarrhalis = test: MIC against Gram-negative bacteria: Moraxella catarrhalis
In short: as §1

Proteus mirabilis = test: MIC against Gram-negative bacteria: Proteus mirabilis
In short: as §1

Aeromonas hydrophila = test: MIC against Gram-negative bacteria: Aeromonas hydrophila
In short: as §1

Klebsiella pneumonia = test: MIC against Gram-negative bacteria: Klebsiella pneumonia
In short: as §1

Pseudomonas aeruginosa = test: MIC against Gram-negative bacteria: Pseudomonas aeruginosa
In short: as §1

E. coli DH5α = test: Antibacterial activity: MIC and growth curve against E. coli DH5α in 96-well plate; details: minimal inhibitory concentration against E. coli DH5α; 96-well plate, 5×10^5 CFU/mL, 37° C., judged after 8 h
In short: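 Log-phase DH5α (OD600 about 0.5, 37° C, 185 rpm in LB) was pelleted, resuspended in fresh LB and seeded at 5×10^5 CFU/mL with recombinant protein at 50, 25 and 12.5 μg/mL (two-fold series), in triplicate. Plates were shaken at 175 rpm, 37° C, and OD600 was read every 30 min. MIC was the lowest concentration with no growth.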

E. coli BL21 = test: MIC against Gram-negative bacteria: E. coli BL21
In short: as §1

Proteus vulgaris = test: MIC against Gram-negative bacteria: Proteus vulgaris
In short: as §1

[1] = 10 h cultivation at 37° C., 5×10^5 CFU/mL, two-fold serial dilution
[2] = 96-well plate, 5×10^5 CFU/mL, 37° C., 10 h

PRT1145 (KINDCTSIPCMNEGFCQKSAHGFTCICPRGYTGAYCE; listed as Homo sapiens)
50 µg/mL: MIC P. mirabilis (Proteus mirabilis; [1])
25 µg/mL: MIC E. coli BL21 (E. coli BL21; [1]) | MIC P. vulgaris (Proteus vulgaris; [1])
12.5 µg/mL: MIC E. cloacae (Enterobacter cloacae; [1]) | MIC C. diversus (Citrobacter diversus; [1]) | MIC S. marcescens (Serratia marcescens; [1]) | MIC M. catarrhalis (Moraxella catarrhalis; [1]) | MIC A. hydrophila (Aeromonas hydrophila; [1]) | MIC K. pneumonia (Klebsiella pneumonia; [1]) | MIC P. aeruginosa (Pseudomonas aeruginosa; [1]) | MIC (E. coli DH5α)

PRT926 (EINECQSNPCVNNGQCVDKVNRFQCLCPPGFTGPVCQ; listed as Homo sapiens)
12.5 µg/mL: MIC (Citrobacter diversus; C. diversus, 10 h cultivation at 37° C.) | MIC (Serratia marcescens; S. marcescens, 10 h cultivation at 37° C.) | MIC (Klebsiella pneumonia; K. pneumonia, 10 h cultivation at 37° C.)
25 µg/mL: MIC (Enterobacter cloacae; E. cloacae, 10 h cultivation at 37° C.) | MIC (Moraxella catarrhalis; M. catarrhalis, 10 h cultivation at 37° C.) | MIC (Pseudomonas aeruginosa; P. aeruginosa, 10 h cultivation at 37° C.) | MIC (E. coli DH5α) | MIC (Proteus vulgaris; P. vulgaris, 10 h cultivation at 37° C.)
50 µg/mL: MIC (Proteus mirabilis; P. mirabilis, 10 h cultivation at 37° C.) | MIC (Aeromonas hydrophila; A. hydrophila, 10 h cultivation at 37° C.) | MIC (E. coli BL21; E. coli BL21, 10 h cultivation at 37° C.)

PRT1208 (VHHGCEDDPCPEGSECVSDPWEEKHTCVCPSGRFGQCP; listed as Homo sapiens)
25 µg/mL: MIC against C. diversus (Citrobacter diversus; Citrobacter diversus, 96-well plate, 5×10^5 CFU/mL, 37° C., 10 h) | MIC against K. pneumonia (Klebsiella pneumonia; Klebsiella pneumonia, 96-well plate, 5×10^5 CFU/mL, 37° C., 10 h) | MIC against E. coli BL21 (E. coli BL21; E. coli BL21, 96-well plate, 5×10^5 CFU/mL, 37° C., 10 h) | MIC against P. vulgaris (Proteus vulgaris; Proteus vulgaris, 96-well plate, 5×10^5 CFU/mL, 37° C., 10 h)
12.5 µg/mL: MIC against E. cloacae (Enterobacter cloacae; Enterobacter cloacae, 96-well plate, 5×10^5 CFU/mL, 37° C., 10 h) | MIC against S. marcescens (Serratia marcescens; Serratia marcescens, 96-well plate, 5×10^5 CFU/mL, 37° C., 10 h) | MIC against M. catarrhalis (Moraxella catarrhalis; Moraxella catarrhalis, 96-well plate, 5×10^5 CFU/mL, 37° C., 10 h) | MIC against P. aeruginosa (Pseudomonas aeruginosa; Pseudomonas aeruginosa, 96-well plate, 5×10^5 CFU/mL, 37° C., 10 h) | MIC (E. coli DH5α)
50 µg/mL: MIC against P. mirabilis (Proteus mirabilis; Proteus mirabilis, 96-well plate, 5×10^5 CFU/mL, 37° C., 10 h) | MIC against A. hydrophila (Aeromonas hydrophila; Aeromonas hydrophila, 96-well plate, 5×10^5 CFU/mL, 37° C., 10 h)

PRT620 (CPCHNGFSCSVMPETEEVVCNNCPPGVTGARCELCADGYFGDPFGEHGPVRPCQP; listed as Homo sapiens)
25 µg/mL: MIC S. marcescens (Serratia marcescens; [2]) | MIC P. mirabilis (Proteus mirabilis; [2]) | MIC P. aeruginosa (Pseudomonas aeruginosa; [2]) | MIC (E. coli DH5α)
12.5 µg/mL: MIC E. cloacae (Enterobacter cloacae; [2]) | MIC C. diversus (Citrobacter diversus; [2]) | MIC E. coli BL21 (E. coli BL21; [2]) | MIC P. vulgaris (Proteus vulgaris; [2])
50 µg/mL: MIC M. catarrhalis (Moraxella catarrhalis; [2]) | MIC A. hydrophila (Aeromonas hydrophila; [2]) | MIC K. pneumonia (Klebsiella pneumonia; [2])

PRT719 (CNNPCEQFNGGCSHICAPGPNGAECQCPHEGNWYLANNRKHCI; listed as Homo sapiens)
12.5 µg/mL: MIC A. hydrophila (Aeromonas hydrophila; [2]) | MIC K. pneumonia (Klebsiella pneumonia; [2]) | MIC E. coli BL21 (E. coli BL21; [2])
50 µg/mL: MIC E. cloacae (Enterobacter cloacae; [2]) | MIC C. diversus (Citrobacter diversus; [2]) | MIC S. marcescens (Serratia marcescens; [2]) | MIC M. catarrhalis (Moraxella catarrhalis; [2]) | MIC P. mirabilis (Proteus mirabilis; [2]) | MIC P. aeruginosa (Pseudomonas aeruginosa; [2]) | MIC (E. coli DH5α) | MIC P. vulgaris (Proteus vulgaris; [2])

PRT250 (DVDECRTSITLCSHHCFNTAGSFTCGCPHDLVLGVDGRTCM; listed as Homo sapiens)
25 µg/mL: MIC (μg/mL) M. catarrhalis (Moraxella catarrhalis; M. catarrhalis, 10 h cultivation at 37° C., 5×10^5 CFU/mL) | MIC (μg/mL) A. hydrophila (Aeromonas hydrophila; A. hydrophila, 10 h cultivation at 37° C., 5×10^5 CFU/mL) | MIC (μg/mL) P. vulgaris (Proteus vulgaris; P. vulgaris, 10 h cultivation at 37° C., 5×10^5 CFU/mL)
12.5 µg/mL: MIC (μg/mL) E. cloacae (Enterobacter cloacae; E. cloacae, 10 h cultivation at 37° C., 5×10^5 CFU/mL) | MIC (μg/mL) C. diversus (Citrobacter diversus; C. diversus, 10 h cultivation at 37° C., 5×10^5 CFU/mL) | MIC (μg/mL) S. marcescens (Serratia marcescens; S. marcescens, 10 h cultivation at 37° C., 5×10^5 CFU/mL) | MIC (μg/mL) P. mirabilis (Proteus mirabilis; P. mirabilis, 10 h cultivation at 37° C., 5×10^5 CFU/mL) | MIC (μg/mL) K. pneumonia (Klebsiella pneumonia; K. pneumonia, 10 h cultivation at 37° C., 5×10^5 CFU/mL) | MIC (μg/mL) P. aeruginosa (Pseudomonas aeruginosa; P. aeruginosa, 10 h cultivation at 37° C., 5×10^5 CFU/mL) | MIC (E. coli DH5α) | MIC (μg/mL) E. coli BL21 (E. coli BL21; E. coli BL21, 10 h cultivation at 37° C., 5×10^5 CFU/mL)

PRT489 (CDNGGTWEQGQCACLPGFSGDRCQLQTRCQNG; listed as Homo sapiens)
50 µg/mL: MIC against P. mirabilis (Proteus mirabilis; [2])
12.5 µg/mL: MIC against E. cloacae (Enterobacter cloacae; [2]) | MIC against C. diversus (Citrobacter diversus; [2]) | MIC against S. marcescens (Serratia marcescens; [2]) | MIC against P. aeruginosa (Pseudomonas aeruginosa; [2]) | MIC (E. coli DH5α) | MIC against E. coli BL21 (E. coli BL21; [2])
25 µg/mL: MIC against M. catarrhalis (Moraxella catarrhalis; [2]) | MIC against A. hydrophila (Aeromonas hydrophila; [2]) | MIC against K. pneumonia (Klebsiella pneumonia; [2]) | MIC against P. vulgaris (Proteus vulgaris; [2])
